Measured values reported in PMC4077824, “Conserved Prosegment Residues Stabilize a Late-Stage Folding Transition State of Pepsin Independently of Ground States” (PLoS ONE, 2014).
Where “and” joins values, the source holds several entries; their conditions need not be identical. Equal entries are not always repeated. Entries after “also recorded” stand apart in the source; their conditions may differ. Where no end group is shown, it is not given here.

Key:
native pepsin (Np) = target: T1, native pepsin (Np) (Sus scrofa, UniProt P00791); assay: PS binding to Np (competitive inhibition of KPAEFF(NO2)AL hydrolysis); format: biochemical, porcine; settings: for Ki: 10 nM Np, 20 mM acetic acid/NaOH pH 5.3, 100 mM NaCl, 5 min incubation, substrate KPAEFF(NO2)AL 0.1 mM, absorbance 300 nm, competitive model, mean ± SD from non-linear curve fitting, 3-5 measurements, read-out: K i (PS-Np inhibition constant); for Ki / ΔΔGPS-Np (change in PS-Np binding energy upon mutation): 20°C; for ΔΔGPS-Np (change in PS-Np binding energy upon mutation): from K i, pH 5.3, relative to WT, ± SD by propagation of errors; for effect on affinity for Np / PS-Np stability (in words): pH 5.3, 20°C, PS inhibition of Np, compared with PSwt
T1 construct: Only the R13 and K36 side-chains of the PS form hydrogen bonds with the mature pepsin domain; purchased Sigma (St. Louis, MO, USA)
T1 sequence (P00791 60-385): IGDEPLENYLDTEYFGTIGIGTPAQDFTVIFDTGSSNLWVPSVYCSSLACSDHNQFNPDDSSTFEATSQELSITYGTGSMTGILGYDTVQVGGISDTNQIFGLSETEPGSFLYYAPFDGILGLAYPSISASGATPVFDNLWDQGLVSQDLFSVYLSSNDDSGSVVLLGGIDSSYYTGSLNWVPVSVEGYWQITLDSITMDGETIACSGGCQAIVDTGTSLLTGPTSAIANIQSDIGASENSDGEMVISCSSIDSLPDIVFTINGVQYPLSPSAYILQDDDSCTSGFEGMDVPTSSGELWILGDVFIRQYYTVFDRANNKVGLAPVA
Procedure: PS binding to Np was determined by using the PS as a competitive inhibitor and measuring the inhibition constant, K i. Hydrolysis of the KPAEFF(NO2)AL substrate was measured by following the decrease in absorbance at 300 nm using a Biochrom Ultrospec 3100pro UV-Vis spectrophotometer (Biochrom Ltd., Cambridge, England) in 20 mM acetic acid/NaOH buffer, pH 5.3, containing 100 mM NaCl. Np samples were diluted to 10 nM and incubated with PS for 5 min at 20°C and assayed for activity. The reaction rates were normalized to the activity in the absence of PS and the data fit using the competitive inhibitor form of the Michaelis-Menten equation [drawing 2] (2) where v0 is the initial reaction rate, V max is the maximum reaction rate, [S] is the substrate concentration (fixed at 0.1 mM), [I] is the inhibitor concentration, and K M is the Michaelis constant.
(§1) The change in stability of the folding transition state upon mutation was calculated using [drawing 3] (3) where k f, wt and k f, mut are the PS-catalyzed folding rate constants of the wild-type and mutant PS peptides. The change in equilibrium stability of PS-Np relative to PS-Rp upon mutation of the PS (ΔΔGPS(Np-Rp)) was determined as the difference between the changes in binding energies, using [drawing 4] (4) and [drawing 5] (5)
(§2) Here, ΔΔGbind refers to either ΔΔGPS-Rp, determined from K d values, or ΔΔGPS-Np, determined from K i values. The Φ-value for each mutant corresponds to eq 3 divided by eq 5. Additional details are included in the supporting information section (Text S1).

refolded pepsin (Rp) [1] = target: T2, refolded pepsin (Rp) (Sus scrofa, UniProt P00791); assay: PS-catalyzed folding of Rp to Np (recovery of Np activity); format: biochemical, porcine; settings: for k f (PS-catalyzed folding rate constant): 1 µM Rp, 30 µM PS, pH 5.3 (20 mM acetic acid/NaOH, 100 mM NaCl), Np activity assayed at pH 1.2, 25°C with KPAEFF(NO2)AL, monoexponential fit, mean ± SD from non-linear curve fitting, 3-5 measurements; for k f (PS-catalyzed folding rate constant) / ΔΔG^‡ (change in folding activation energy upon mutation): 15°C; for ΔΔG^‡ (change in folding activation energy upon mutation): from k f, pH 5.3, relative to WT, ± SD by propagation of errors; for effect on rate of PS-catalyzed folding (in words): pH 5.3, 15°C, compared with PSwt
T2 construct: Only the R13 and K36 side-chains of the PS form hydrogen bonds with the mature pepsin domain; purchased Sigma (St. Louis, MO, USA)
T2 sequence (P00791 60-385): as above
Procedure: PS-catalyzed folding of Rp to Np
PS-catalyzed folding was carried out by combining 1 µM Rp and 30 µM PS, in a volume of 100 µl, at pH 5.3 (20 mM acetic acid/NaOH with 100 mM NaCl) and 15°C. Aliquots were taken at several time intervals, diluted 20-fold in 50 mM phosphoric acid buffer, pH 1.2, incubated for 5 min at 25°C and assayed for Np activity using the KPAEFF(NO2)AL substrate. The recovery of Np activity with time, t, was fit with a monoexponential function (y = a – bexp(–k f t)) to obtain the PS-catalyzed folding rate constant, k f. Under these conditions, PS binding to Rp reached equilibrium within the dead-time of mixing (<8 sec), as judged by Trp-fluorescence.
as §1
Temperature dependence of PS-catalyzed folding
PS-catalyzed folding could be measured only up to 15 °C for PSwt, as the reaction was too fast at higher temperatures. […] Given the linear temperature dependence it could be reasonably assumed that changes in activation energies (mutant – wild-type) would be unchanged from 15 °C to 20 °C, and so could be compared directly with changes in binding energies (wild-type – mutant) that were determined at 20 °C.

refolded pepsin (Rp) [2] = target: T2, refolded pepsin (Rp); assay: PS binding to Rp (Trp-fluorescence); design: species or system porcine; settings: for Kd: 0.6-1.2 µM Rp, 20 mM acetic acid/NaOH pH 5.3 without added NaCl, ≥10 min, Trp-fluorescence ex 295 nm, em 315 nm, mean ± SD from non-linear curve fitting, 3-5 measurements, read-out: K d (PS-Rp dissociation constant); for Kd / ΔΔGPS-Rp (change in PS-Rp binding energy upon mutation): 20°C; for ΔΔGPS-Rp (change in PS-Rp binding energy upon mutation): from K d, pH 5.3, relative to WT, ± SD by propagation of errors
Procedure: The change in intrinsic tryptophan fluorescence of pepsin was used to measure the binding of PS to Rp and to determine the dissociation constant, K d. Rp solutions were diluted to between 0.6 and 1.2 µM in 20 mM acetic acid/NaOH buffer, pH 5.3, and mixed with various amounts of PS. After incubating the samples at 20°C for ≥10 minutes, the intrinsic tryptophan fluorescence was measured using a PTI spectrofluorophotometer (Photon Technology International, Inc., Birmingham NJ, USA), with excitation at 295 nm and emission measured at 315 nm. The change in fluorescence, ΔF i, at each PS concentration, [PS], was normalized relative to the maximum change, ΔF max, and fit according to [drawing 1] (1) where [Rp] is the total concentration of pepsin.
PS binding to Rp was measured in buffer without added 100 mM NaCl in order to obtain more accurate measurements of K d, owing to a larger change in signal in the absence of salt. Additionally, without added 100 mM NaCl it was possible to isolate the PS-Rp binding step from the catalyzed folding step thereby improving the determination of K d.
as §1, §2

pepsin = settings: native state relative to an intermediate state; ref [7]; cited from earlier work
Description: General thermodynamic and kinetic features of protein folding are known, such as that the natively folded conformation of a protein is thermodynamically stabilized and that there is a relationship between topology and folding rate, which holds for both two-state and multi-state folding proteins, [3]. However, zymogen-derived proteins which require a prosegment (PS) domain to catalyze folding, such as the serine peptidases αLP [4], SGPB [5], and subtilisin [6], and the aspartic peptidase pepsin [7], deviate from the common thermodynamic and kinetic trends in protein foldin ... || Pepsin, which is derived from its zymogen pepsinogen, folds to a thermodynamically stable yet non-native form (termed refolded pepsin, Rp) upon removal from denaturing conditions. […] In the case of pepsin, Rp was characterized by a ΔG unf of 5.8 kcal/mol, a 10% increase in unordered secondary structure and identical tertiary structure to Np (both yield R g ∼20 Å).

[3] = system: pepsin (PS-Rp, PS-TS, PS-Np complexes); assay: Φ-value analysis from PS-catalyzed folding and binding constants; design: species or system porcine; settings: ± SD by propagation of errors; for Φ: ratio ΔΔG^‡/ΔΔGPS(Np-Rp); for ΔΔGPS(Np-Rp) (change in equilibrium stability of PS-Np relative to PS-Rp): ΔΔGPS-Np minus ΔΔGPS-Rp
Procedure: Calculation of Φ-values from PS-catalyzed folding and binding constants
as §1, §2
As outlined below, ∆Gbind values are used to calculate ∆∆GPS(Np-Rp), which is the change in the equilibrium free energy difference between PS-Np and PS-Rp upon mutation of the PS (for a diagram of the folding reaction, see Fig S1)
ΔΔGbind can refer to either ∆∆G^PS-Np(wt-mut) or ∆∆G^PS-Rp(wt-mut). Also, we can write ∆Gbind in terms of its components
where ∆GPS, ∆Gpepsin and ∆Gsolvent refer to the change in free energy of the PS, pepsin and the solvent upon PS binding to pepsin, respectively. Combining equations S1 and S2 gives
The contribution of each component to ∆∆Gbind will depend on the particular mutation (e.g., nature of substitution, location within folded structure, solvent accessibility). This is the general case for protein engineering analysis, in which the effects of mutations on changes in equilibrium and activation energies are the result of many individual interaction energy terms, including solvent terms, as previously explained in detail [Fersht AR, Matouschek A, Serrano L (1992) The folding of an enzyme I. Theory of protein engineering analysis of stability and pathway of protein folding. J Mol Biol 224: 771‒782]. Most importantly, there is no requirement to separate ΔΔGbind into its components in order to proceed with analysis as we are interested in the overall change in equilibrium stability of the PS-pepsin complex (∆∆GPS(Np-Rp))
This bimolecular approach to Φ-value analysis of protein folding is qualitatively identical to Φ-value analysis as it was originally applied to the study of enzyme catalysis. As outlined previously [Fersht AR], changes in the free energy of enzyme (E) binding to substrate (S) or product (P) are used to determine the change in free energy difference between E-P and E-S upon mutation, ∆∆G^EP-ES(wt-mut), where
As these are at the scale of global energy terms, equations S4 and S5 are equivalent and PS-catalyzed folding can be treated similarly as enzyme catalysis, in which the PS is the foldase and the denatured and natively folded protein are the substrate and product, respectively. However, protein folding reactions are more complicated to interpret at the level of individual interaction energy terms, which are more numerous [Fersht AR].
Changes in the binding energies between PS-Rp and PS-Np upon PS mutation can then be used to determine Φ-values with the following considerations:
1. Free PS is unstructured (see Fig S6), so Ala mutations are expected to have a negligible effect on the stability and conformation of free PS.
2. Changes in binding and folding upon mutation can be localized to the loss of interactions in the immediate vicinity of the truncation mutation (i.e., larger residue mutated to Ala), and not due to gross conformational changes of the PS or changes in the binding/folding mechanism (consider as strong evidence that all of the mutant PS’s readily catalyze folding to the native, active form).
3. Changes in PS-Rp and PS-Np binding energies upon mutation (∆∆G^PS-Np(wt-mut) and ∆∆G^PS-Rp(wt-mut)) are measured directly, while the change in the PS-TS binding energy (∆∆G^PS-TS(wt-mut)) is the sum of ∆∆G^PS-Rp(wt-mut) and ∆∆G^‡(wt-mut).
4. Φ-values are calculated using […]

[4] = pH 5.3, 20°C, compared with PSwt

Row | Ki (native pepsin (Np)) | ΔΔGPS-Np (change in PS-Np binding energy upon mutation) (native pepsin (Np)) | k f (PS-catalyzed folding rate constant) (refolded pepsin (Rp) [1]) | ΔΔG^‡ (change in folding activation energy upon mutation) (refolded pepsin (Rp) [1]) | Kd (refolded pepsin (Rp) [2]) | ΔΔGPS-Rp (change in PS-Rp binding energy upon mutation) (refolded pepsin (Rp) [2]) | reduction in binding affinity for Rp (refolded pepsin (Rp) [2]; [4]) | Φ [3] | ΔΔGPS(Np-Rp) (change in equilibrium stability of PS-Np relative to PS-Rp) [3] | Substance | effect on affinity for Np / PS-Np stability (in words) (native pepsin (Np)) | effect on affinity for Rp / PS-Rp stability (in words) (refolded pepsin (Rp) [2]; [4]) | ΔG N-I (pepsin) | effect on rate of PS-catalyzed folding (in words) (refolded pepsin (Rp) [1])
1 | 382 ± 37.2 nM | 1.03 ± 0.12 kcal/mol | 0.24 ± 0.02 min⁻¹ | 1.02 ± 0.15 kcal/mol | 1960 ± 290 nM | 1.08 ± 0.10 kcal/mol | 7 fold | – | – | LVKVPLVRKKSLAQNLIKNGKLKDFLKTHKHNPASKYFPEAAAL [R13A] | largest reduction in affinities for Np; also recorded: destabilized both the PS-Np and PS-Rp complexes | destabilized both the PS-Np and PS-Rp complexes | – | –
2 | – | – | – | – | – | – | – | – | – | pepsin: Porcine pepsin A (EC 3.4.23.1); native pepsin (Np) | – | – | -0.1 kcal/mol | –
3 | 230 ± 29.1 nM | 0.74 ± 0.13 kcal/mol | 0.26 ± 0.04 min⁻¹ | 0.96 ± 0.17 kcal/mol | 250 ± 30 nM | -0.12 ± 0.08 kcal/mol | – | 1.1 and 1.1±0.3 | 0.86 ± 0.15 kcal/mol | LVKVPLVRKKSLRQNLIKNGKLKDALKTHKHNPASKYFPEAAAL [F25A] | – | negligible effect on PS-Rp binding | – | –
4 | 113 ± 20.3 nM | 0.33 ± 0.15 kcal/mol | 0.28 ± 0.03 min⁻¹ | 0.94 ± 0.15 kcal/mol | 720 ± 140 nM | 0.50 ± 0.13 kcal/mol | – | – | – | LVKVPLVRKKSLRQNLIKNGKLKDFLKTHKHNPASAYFPEAAAL [K36A] | nearly equally destabilizing to PS-Rp and PS-Np | nearly equally destabilizing to PS-Rp and PS-Np | – | –
5 | 270 ± 31.5 nM | 0.83 ± 0.12 kcal/mol | 0.18 ± 0.02 min⁻¹ | 1.18 ± 0.15 kcal/mol | 680 ± 70 nM | 0.47 ± 0.08 kcal/mol | – | 3.2±1.4 | 0.36 ± 0.15 kcal/mol | LVKVPLVRKKALRQNLIKNGKLKDFLKTHKHNPASKYFPEAAAL [S11A] | – | – | – | a burst-phase in the folding kinetics was noticeable
6 | 193 ± 38.8 nM | 0.64 ± 0.16 kcal/mol | 0.13 ± 0.01 min⁻¹ | 1.36 ± 0.15 kcal/mol | 640 ± 90 nM | 0.43 ± 0.10 kcal/mol | – | – | – | LVKVPAVRKKSLRQNLIKNGKLKDFLKTHKHNPASKYFPEAAAL [L6A] | – | – | – | slowest folding rate
